Data taken from patent US20210330611A1, “THERAPY FOR NEUROLOGICAL DISEASES/DISORDERS” (priority 2020, published 2021).
Counter-ions that a name gives are not always drawn. Like-named read-outs stand apart in the source and are kept apart here.

Columns and labels:
[1] = system: primary rat microglia;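 on Fibrin % cell toxicity: share of dead cells sized under 150 µm2 at 10 µM in fibrin-stimulated microglia HTS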
[2] = system: fibrin- and LPS-induced microglia activation; assay: cells; format: cell-based, rat
[3] = system: primary rat microglia; remark: listed apart in the source;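 on Fibrin % cell toxicity: share of dead cells sized under 150 µm2 at 10 µM in fibrin-stimulated microglia HTS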
[4] = system: fibrin-induced microglia activation; assay: Image-based assay of fibrin-induced microglia activation (HTS and dose response); format: cell-based, rat; conditions: for inhibition at 10 µM: Rattus norvegicus, Microglia, read-out: Fibrin % inhibition
[5] = system: LPS-induced microglia activation; assay: Image-based assay of LPS-induced microglia activation (HTS and dose response); format: cell-based, rat
[6] = Rattus norvegicus, Microglia, read-out: LPS % inhibition
[7] = quadrant by fibrin and LPS inhibition in HTS of 1907 compounds
[8] = primary microglia HTS, fibrin stimulation, increased cell size (>800 μm^2) as marker of activation
[9] = Rattus norvegicus, Microglia, 48 h, primary microglia HTS, LPS stimulation; increased cell size (>800 μm^2) as marker of activation; read-out: LPS % inhibition
[10] = classification by fibrin and LPS inhibition, HTS at 10 μM
[11] = primary microglia HTS, fibrin stimulation, compounds at 10 μM
[12] = Rattus norvegicus, Microglia, primary microglia HTS, LPS stimulation, compounds at 10 μM; read-out: LPS % inhibition
[13] = primary HTS, 10 μM, fibrin-stimulated primary microglia
[14] = Rattus norvegicus, Microglia, primary HTS, 10 μM, LPS-stimulated primary microglia; read-out: LPS % inhibition
[15] = quadrant by fibrin and LPS inhibition, HTS at 10 μM
[16] = primary microglia HTS, LPS stimulation; increased cell size (>800 μm^2) as marker of activation

CC/C(=C(/CC)c1ccc(O)cc1)c1ccc(O)cc1 [Diethylstilbestrol]
Fibrin % cell toxicity ([1]; rat): 1% | Quadrant (FIG. 5b) [2]: Q4 | LPS % cell toxicity ([3]; rat): 0% | inhibition at 10 µM [4]: -26% | inhibition at 10 µM [5, 6]: 16%

C#CCN(C)CCCOc1ccc(Cl)cc1Cl.Cl
Fibrin % cell toxicity [1]: 0% | Quadrant (FIG. 5b) [2]: Q4 | LPS % cell toxicity [3]: 0% | Fibrin % inhibition ([4]; 10 µM): −28% | LPS % inhibition ([5]; 10 µM): 6%

O=C(O)CCC(=O)OC[C@@H](NC(=O)C(Cl)Cl)[C@H](O)c1ccc([N+](=O)[O-])cc1 [CHLOR[…]]
Fibrin % cell toxicity ([1]; rat): 2% | Quadrant (FIG. 5b) [2]: Q4 | LPS % cell toxicity ([3]; rat): 1% | inhibition at 10 µM [4]: 24% | inhibition at 10 µM [5, 6]: 14%

CN1C(C(=O)Nc2ccccn2)=C(O)c2sccc2S1(=O)=O [Tenoxicam]
Fibrin % cell toxicity ([1]; rat): 1% | Quadrant (FIG. 5b) [2]: Q4 | LPS % cell toxicity ([3]; rat): 0% | inhibition at 10 µM [4]: 11% | inhibition at 10 µM [5, 6]: 15%

CN[C@H](CC(C)C)C(=O)N[C@H]1C(=O)N[C@@H](CC(N)=O)C(=O)N[C@H]2C(=O)N[C@H]3C(=O)N[C@H](C(=O)N[C@H](C(=O)O)c4cc(O)cc(O)c4-c4cc3ccc4O)[C@H](O)c3ccc(c(Cl)c3)Oc3cc2cc(c3O[C@@H]2O[C@H](CO)[C@@H](O)[C@H](O)[C@H]2O[C@H]2C[C@](C)(N)[C@H](O)[C@H](C)O2)Oc2ccc(cc2Cl)[C@H]1O [Vancomycin Hydrochloride]
Fibrin % cell toxicity ([1]; rat): 1% | Quadrant (FIG. 5b) [2]: Q4 | LPS % cell toxicity ([3]; rat): 0% | Fibrin % inhibition ([4]; 10 µM): −20% | LPS % inhibition ([5]; 10 µM): 9%

CC1CCc2c(N3CCC(O)CC3)c(F)cc3c(=O)c(C(=O)O)cn1c23 (stereo not shown) [Nadifloxacin]
Fibrin % cell toxicity ([1]; rat): 1% | Quadrant (FIG. 5b) [2, 7]: Q4 | LPS % cell toxicity ([3]; rat): 0% | inhibition at 10 µM [4, 8]: -14% | inhibition at 10 µM [5, 9]: 10%

CC[C@@H](CO)NCCN[C@@H](CC)CO [Ethambutol]
Fibrin % cell toxicity ([1]; rat): 1% | Quadrant (FIG. 5b) [2, 10]: Q4 | LPS % cell toxicity ([3]; rat): 1% | inhibition at 10 µM [4, 11]: 12% | inhibition at 10 µM [5, 12]: 14%

O=C(O)CCCc1ccc(N(CCCl)CCCl)cc1 [Chlorambucil]
Fibrin % cell toxicity ([1]; rat): 1% | Quadrant (FIG. 5b) ([2]; primary HTS, 10 μM): Q4 | LPS % cell toxicity ([3]; rat): 0% | inhibition at 10 µM [4, 13]: 8% | inhibition at 10 µM [5, 14]: -7%

NC(CO)(CO)CO [Tris]
Fibrin % cell toxicity [1]: 1% | Quadrant (FIG. 5b) [2]: Q4 | LPS % cell toxicity [3]: 1% | Fibrin % inhibition ([4]; 10 µM): −18% | LPS % inhibition ([5]; 10 µM): 41%

C[C@H]1O[C@@H](n2cc(F)c(=O)[nH]c2=O)[C@H](O)[C@@H]1O [5-fluoro-5′-deoxyuridine, Doxifluridine]
Fibrin % cell toxicity [1]: 1% | Quadrant (FIG. 5b) [2, 15]: Q4 | LPS % cell toxicity [3]: 0% | Fibrin % inhibition [4, 11]: −27% | LPS % inhibition ([5]; primary microglia HTS, LPS stimulation, compounds at 10 μM): 9%

O=c1cccc2n1C[C@@H]1CNC[C@H]2C1 [Cytisine]
Fibrin % cell toxicity ([1]; rat): 1% | Quadrant (FIG. 5b) [2]: Q4 | LPS % cell toxicity ([3]; rat): 1% | inhibition at 10 µM [4]: 23% | inhibition at 10 µM [5, 6]: 16%

CC(C)(C)NCC(O)c1cc(Cl)c(N)c(Cl)c1 (stereo not shown) [Clenbuterol]
Fibrin % cell toxicity ([1]; rat): 1% | Quadrant (FIG. 5b) ([2]; primary HTS, 10 μM): Q4 | LPS % cell toxicity ([3]; rat): 0% | inhibition at 10 µM [4, 13]: 11% | inhibition at 10 µM [5, 14]: 25%

NCCCCCC(=O)O [Aminocaproic Acid]
Fibrin % cell toxicity ([1]; rat): 1% | Quadrant (FIG. 5b) [2]: Q4 | LPS % cell toxicity ([3]; rat): 0% | inhibition at 10 µM [4]: 5% | inhibition at 10 µM [5, 6]: 7%

CCN(CC)CCCC(C)Nc1ccnc2cc(Cl)ccc12 (stereo not shown) [Chloroquine]
Fibrin % cell toxicity ([1]; rat): 0% | Quadrant (FIG. 5b) [2]: Q4 | LPS % cell toxicity ([3]; rat): 0% | inhibition at 10 µM [4]: 2% | inhibition at 10 µM [5, 6]: 7%

CC(C)NCC(O)c1ccc(O)c(O)c1 (stereo not shown) [Isoprenaline]
Fibrin % cell toxicity ([1]; rat): 0% | Quadrant (FIG. 5b) [2, 7]: Q4 | LPS % cell toxicity ([3]; rat): 0% | inhibition at 10 µM ([4]; primary microglia HTS, fibrin stimulation, activation = cell size >800 μm2): 29% | inhibition at 10 µM ([5]; Rattus norvegicus, Microglia, 48 h, primary microglia HTS, LPS stimulation, activation = cell size >800 μm2; read-out: LPS % inhibition): 37%

COc1cc([C@@H]2c3cc4c(cc3[C@H](O)[C@H]3COC(=O)[C@H]23)OCO4)cc(OC)c1OC [Podofilox/Podophyllotoxin]
Fibrin % cell toxicity [1]: 8% | Quadrant (FIG. 5b) [2, 7]: Q2 | LPS % cell toxicity [3]: 9% | Fibrin % inhibition [4, 8]: 110% | LPS % inhibition [5, 16]: 107%

Oc1cccc2cccnc12 [Oxyquinoline]
Fibrin % cell toxicity ([1]; rat): 80% | Quadrant (FIG. 5b) [2]: Q2 | LPS % cell toxicity ([3]; rat): 57% | inhibition at 10 µM [4]: 117% | inhibition at 10 µM [5, 6]: 116%

COc1ccc(Cc2cnc(N)nc2N)cc1OC [Diaveridine]
Fibrin % cell toxicity ([1]; rat): 1% | Quadrant (FIG. 5b) [2, 10]: Q4 | LPS % cell toxicity ([3]; rat): 1% | inhibition at 10 µM [4, 11]: -8% | inhibition at 10 µM [5, 12]: 13%

CC(=O)[C@H]1CC[C@H]2[C@@H]3CC=C4C[C@@H](OC(=O)CCC(=O)O)CC[C@]4(C)[C@H]3CC[C@]12C [Pregnenolone Succinate]
Fibrin % cell toxicity ([1]; rat): 1% | Quadrant (FIG. 5b) ([2]; classification by fibrin and LPS inhibition in HTS): Q4 | LPS % cell toxicity ([3]; rat): 1% | inhibition at 10 µM ([4]; primary microglia HTS, fibrin stimulation, cell size >800 μm2 as marker of activation): 4% | inhibition at 10 µM ([5]; Rattus norvegicus, Microglia, 48 h; read-out: LPS % inhibition): 21%

COC(C)(C)CCC[C@H](C)C/C=C/C(C)=C/C(=O)OC(C)C [Methoprene (s)]
Fibrin % cell toxicity [1]: 1% | Quadrant (FIG. 5b) [2, 7]: Q4 | LPS % cell toxicity [3]: 0% | Fibrin % inhibition [4, 8]: −9% | LPS % inhibition [5, 16]: 12%

CCCc1cc(=O)[nH]c(=S)[nH]1 [Propylthiouracil]
Fibrin % cell toxicity ([1]; rat): 0% | Quadrant (FIG. 5b) [2]: Q4 | LPS % cell toxicity ([3]; rat): 0% | inhibition at 10 µM [4]: -4% | inhibition at 10 µM ([5]; Rattus norvegicus, Microglia, 48 h, read-out: LPS % inhibition): 8%

Nc1ccn([C@@H]2O[C@H](CO)[C@@H](O)[C@@H]2O)c(=O)n1 [Cytarabine]
Fibrin % cell toxicity ([1]; rat): 0% | Quadrant (FIG. 5b) [2, 10]: Q4 | LPS % cell toxicity ([3]; rat): 0% | inhibition at 10 µM [4, 11]: -19% | inhibition at 10 µM [5, 12]: 14%

CCOC(=O)OC(C)OC1=C(C(=O)Nc2ccccn2)N(C)S(=O)(=O)c2ccccc21 (stereo not shown) [Ampiroxicam]
Fibrin % cell toxicity ([1]; rat): 1% | Quadrant (FIG. 5b) [2, 15]: Q4 | LPS % cell toxicity ([3]; rat): 0% | inhibition at 10 µM [4, 11]: -9% | inhibition at 10 µM [5, 12]: 14%

Cc1ccc(-c2nc3ccc(C)cn3c2CC(=O)N(C)C)cc1 [Zolpidem, Zolpidem Tartrate]
Fibrin % cell toxicity [1]: 0% | Quadrant (FIG. 5b) [2]: Q4 | LPS % cell toxicity [3]: 0% | Fibrin % inhibition ([4]; 10 µM): −12% | LPS % inhibition ([5]; 10 µM): 4%

N=C(N)NC(=O)c1nc(Cl)c(N)nc1N [Amiloride]
Fibrin % cell toxicity ([1]; rat): 1% | Quadrant (FIG. 5b) [2, 15]: Q4 | LPS % cell toxicity ([3]; rat): 0% | inhibition at 10 µM [4, 11]: 20% | inhibition at 10 µM [5, 12]: 7%

CN(C)CCC(c1ccc(Cl)cc1)c1ccccn1 (stereo not shown) [Chlorphenamine]
Fibrin % cell toxicity ([1]; rat): 1% | Quadrant (FIG. 5b) [2]: Q4 | LPS % cell toxicity ([3]; rat): 0% | inhibition at 10 µM [4, 13]: 0% | inhibition at 10 µM [5, 14]: 13%

CN/C(=N/CCSCc1nc[nH]c1C)NC#N [Cimetidine]
Fibrin % cell toxicity ([1]; rat): 0% | Quadrant (FIG. 5b) [2]: Q4 | LPS % cell toxicity ([3]; rat): 1% | inhibition at 10 µM [4]: -1% | inhibition at 10 µM [5, 6]: 22%

CN(C)CC(c1ccc(O)cc1)C1(O)CCCCC1 (stereo not shown) [Desvenlafaxine]
Fibrin % cell toxicity ([1]; rat): 1% | Quadrant (FIG. 5b) [2, 10]: Q4 | LPS % cell toxicity ([3]; rat): 1% | inhibition at 10 µM [4, 11]: 13% | inhibition at 10 µM [5, 12]: 3%

CCn1cc(C(=O)O)c(=O)c2cc(F)c(N3CCNCC3)cc21 [Norfloxacin]
Fibrin % cell toxicity ([1]; rat): 1% | Quadrant (FIG. 5b) [2, 7]: Q4 | LPS % cell toxicity ([3]; rat): 0% | inhibition at 10 µM [4, 8]: 0% | inhibition at 10 µM [5, 9]: 9%

CCCCC1C(=O)N(c2ccccc2)N(c2ccc(O)cc2)C1=O (stereo not shown) [Oxyphenbutazone]
Fibrin % cell toxicity [1]: 1% | Quadrant (FIG. 5b) [2, 7]: Q1 | LPS % cell toxicity [3]: 97% | Fibrin % inhibition [4, 8]: 2% | LPS % inhibition [5, 16]: 114%

Prednisolone sodium phosphate [reference compound]
Fibrin % cell toxicity [1]: 3% | IC50 [1]: > 20 µM | Cherry-picked Hit (Suppl. Table 7) [2]: HIT (key: HIT: Hits were defined as molecules that exhibited greater than 50% inhibition of either fibrin or LPS activation) | Hit [2]: HIT (key: HIT: Hits were defined as molecules that exhibited greater than 50% inhibition of either fibrin or LPS activation) | Quadrant (FIG. 5b) [2]: Q2 | IC50 [3]: > 20 µM | LPS % cell toxicity [3]: 3% | Fibrin % inhibition [4]: 108% | IC50 ([4]; read-out: Fibrin IC50): 0.1 µM | IC50 ([4]; read-out: Fibrin IC50 (uM) (Suppl. Table 7)): 0.1 µM | LPS % inhibition [5]: 96% | IC50 ([5]; read-out: LPS IC50): 4 µM | IC50 ([5]; read-out: LPS IC50 (uM) (Suppl. Table 7)): 4 µM
